In patent publication US8680111B2 (Pfizer Inc., priority 2012, dated 2014) one finds IC50 and Ki data, which are given here for 20 compounds.

The IC50 is the concentration needed to halve the response being measured. What is called Ki is the dissociation constant of the complex between target and ligand, obtained from inhibition or displacement.

Structures are written as SMILES. Where only a bound is given, the exact number is not on record here.

The target of test [1] is T1, WT EML4-ALK (NIH-3T3 EML4-ALK wt v1 cells) (Homo sapiens, UniProt Q9UM73).
T1 construct: expressed in transfected cells; the other entry of the earlier key: EML4 (Q9HC35, Echinoderm microtubule-associated protein-like 4)
The test is described as follows: Cellular phospho-ALK (Tyr1604) ELISA assay for WT EML4-ALK. The test is classed as cell-based. The settings on record: 1 hour, read-out: ELISA assay for WT EML4-ALK (IC50).
Description: (§1) Cellular Phospho-ALK (Tyr1604) ELISA Assay for EML4-ALK:
(§2) The cells were maintained at 37° C. in a 5% CO2 incubator in DMEM (Invitrogen, Carlsbad, Calif.) medium supplemented with 1% L-glutamine, 1% penicillin and streptomycin, 1 ug/ml puromycin and 10% new born calf serum (NCS) in T-75 flasks.
(§3) Cells were washed with PBS and re-suspended in DMEM medium supplemented with 0.5% NCS and 1% pen/strep and seeded into 96-well plates at density of 20,000 cells/well/100 μl and incubated in the incubator at 37° C. and 5% CO2. After 20 hours of incubation, 100 μl of assay media (DMEM) in presence of designated PF-compounds concentrations or controls (DMSO) were added into plates and incubated for 1 hour in the incubator. Media was then removed and lysis buffer, containing phosphatase inhibitors and phenylmethanesulfonyl fluoride (PMSF), was added to wells and shaken at 4° C. for 30 minutes to generate protein lysates.
(§4) A phospho-ALK (Tyr1604) rabbit antibody was coated onto the 96-well microplates. 50 μl of cell lysates were added to the antibody coated plate and incubated at room temperature for 2 hours. Following extensive washing with 0.1% Tween 20 in PBS to remove unbound materials, ALK mouse mAb was added to detect captured phospho-ALK (Tyr1604) and phospho-ALK fusion proteins. Anti-mouse IgG, HRP-linked antibody was then used to recognize the bound detection antibody. Finally, the chemiluminescent reagent was added and incubated for 10 minutes for signal development. The assay plates were read in the Envision plate reader in the luminescent mode. IC50 values were calculated by a concentration-response curve fitting using a four-parameter analytic method.

For test [2], the target named is T2, human recombinant wild-type ALK kinase domain (amino acids 1093-1411) (Homo sapiens, UniProt Q9UM73).
T2 construct: ALK kinase domain (amino acids 1093-1411); made in house
The test is described as follows: Wild-type ALK enzyme assay (microfluidic mobility shift). The settings on record: ATP 60 μM, competitive inhibition fit, read-out: WT ALK enzyme assay (Ki). Type of test: biochemical.
Description: The reactions were incubated for 1 h at room temperature, stopped by the addition of 0.1 M EDTA, pH 8, and the extent of reactions (˜15-20% conversion with no inhibitor) was determined after electrophoretic separation of the fluorescently labeled peptide substrate and phosphorylated product on an LabChip EZ Reader II (Caliper Life Sciences, Hopkinton, Mass.).

For test [3], the target named is T3, human recombinant L1196M ALK kinase domain (amino acids 1093-1411) (Homo sapiens, UniProt Q9UM73, L1196M).
T3 construct: ALK kinase domain (amino acids 1093-1411); made in house
Nature of the test: L1196M mutant ALK enzyme assay (microfluidic mobility shift). Type of test: biochemical. The conditions noted are these: ATP 60 μM, 0.5 nM enzyme, competitive inhibition fit; read-out: L1196M ALK enzyme assay (Ki).

Test [4] has as its target T4, L1196M EML4-ALK (NIH-3T3 EML4-ALK v1 L1196M cells) (Homo sapiens, UniProt Q9UM73, L1196M).
T4 construct: expressed in transfected cells; the other entry of the earlier key: EML4 (Q9HC35, Echinoderm microtubule-associated protein-like 4)
The test is described as follows: Cellular phospho-ALK (Tyr1604) ELISA assay for L1196M EML4-ALK. The conditions noted are these: NIH-3T3 EML4-ALK v1 L1196M cells, 1 hour, phospho-ALK (Tyr1604); read-out: ELISA assay for L1196M EML4-ALK (IC50). Type of test: cell-based. In general terms: ELISA stands for enzyme-linked immunosorbent assay.
Description: as §1, §2, §3, §4

For the compound `Cn1nc2c(c1C#N)-c1cnc(N)c(c1)OCc1cc(F)ccc1COC2` [Example 118, 7-amino-12-fluoro-2-methyl-2,10,15,17-tetrahydro-8,4-(metheno)pyrazolo-[4,3-h][2,11,5]benzodioxazacyclotetradecine-3-carbonitrile], the IC50 in test [1] came to 217 nM; in test [4], 1400 nM. Besides, the figures for the Ki in test [2] and in test [3] were 17.8 nM and 64.7 nM, respectively.

For the compound `CC1Oc2cc(cnc2N)-c2c(nn(C)c2C#N)COCc2ccc(F)cc21` (centres unmarked) [Example 119], the figures for the IC50 in test [1] and in test [4] were 7.79 nM and 264 nM, respectively. For the same compound, the inhibitory constant (Ki) in test [2] is 1.6 nM; in test [3] it was 13.4 nM.

For `CC1Oc2nc(cnc2N)-c2c(nn(C)c2C#N)Cn2ccnc2-c2ccc(F)cc21` (single isomer, unassigned) [Example 109, 8-amino-3-fluoro-5,13-dimethyl-13,15-dihydro-5H-7,11-(azeno)imidazo[1,2-k]pyrazolo[4,3-h][2,5,11]benzoxadiazacyclotetradecine-12-carbonitrile], the IC50 in test [1] was determined as 11 nM; in test [4], 55.6 nM. The Ki in test [2] is 8.1 nM; in test [3], 4.7 nM.

For the compound `Cc1nn(C)c2c1-c1cnc(N)c(c1)OC(C)c1cc(F)ccc1C(=O)N(C1CC1)C2` (single isomer, unassigned) [Example 12, 7-amino-16-cyclopropyl-12-fluoro-1,3,10-trimethyl-16,17-dihydro-1H-8,4-(metheno)pyrazolo[4,3-h][2,5,11]benzoxadiazacyclotetradecin-15(10H)-one], the IC50 in test [1] was 34.9 nM; in test [4] it was 700 nM. The values for the Ki in test [2] and in test [3] were 10 nM and 29 nM, respectively.

Turning to `COc1nccc2c1-c1cnc(N)c(n1)OC(C)c1cc(F)ccc1C(=O)N(C)C2` (single isomer, unassigned) [Example 30, 8-amino-13-fluoro-4-methoxy-11,17-dimethyl-17,18-dihydro-9,5-(azeno)pyrido[3,4-h][2,5,11]benzoxadiazacyclotetradecin-16(11H)-one], the figures for the IC50 in test [1] and in test [4] were 2.64 nM and 67.2 nM, respectively. Moreover, the inhibition constant (Ki) in test [2] was below 0.2 nM; in test [3], 0.67 nM.

For the compound `COc1snc2c1-c1cnc(N)c(n1)O[C@H](C)c1cc(F)ccc1C(=O)N(C)C2` [Example 51, (10R)-7-amino-12-fluoro-3-methoxy-10,16-dimethyl-16,17-dihydro-8,4-(azeno)[1,2]thiazolo[4,3-h][2,5,11]benzoxadiazacyclotetradecin-15(10H)-one], the IC50 was 0.95 nM in test [1] and 6.25 nM in test [4]. Also, the inhibition constant Ki in test [2] was 0.13 nM; in test [3], 0.28 nM.

In the case of `CC1Oc2cc(F)ccc2C(=O)N(C)Cc2nn(C)c(C#N)c2-c2cnc(N)c1c2` (single isomer, unassigned) [Example 76, 7-amino-12-fluoro-2,9,16-trimethyl-15-oxo-2,15,16,17-tetrahydro-9H-8,4-(metheno)pyrazolo[4,3-h][1,5,11]benzoxadiazacyclotetradecine-3-carbonitrile], the half-maximal inhibitory concentration (IC50) was 95.6 nM in test [1] and 109 nM in test [4]. The Ki in test [2] worked out at 3.1 nM; in test [3], 1.9 nM.

As for `C[C@H]1Oc2cc(cnc2N)-c2c(nn(C)c2C#N)CN(C2CC2)C(=O)c2ccc(F)cc21` [Example 55, (10R)-7-amino-16-cyclopropyl-12-fluoro-2,10-dimethyl-15-oxo-10,15,16,17-tetrahydro-2H-8,4-(metheno)pyrazolo[4,3-h][2,5,11]benzoxadiazacyclotetradecine-3-carbonitrile], the IC50 in test [1] was 1.03 nM; in test [4], 13.4 nM. In addition, the inhibitory constant (Ki) in test [2] was below 0.07 nM; in test [3], 0.24 nM.

Regarding `CN1Cc2nn(C)c(C#N)c2-c2cnc(N)c(c2)OC(CF)c2cc(F)ccc2C1=O` (single isomer, unassigned) [Example 85, 7-amino-12-fluoro-10-(fluoromethyl)-2,16-dimethyl-15-oxo-10,15,16,17-tetrahydro-2H-8,4-(metheno)pyrazolo[4,3-h][2,5,11]benzoxadiazacyclotetradecine-3-carbonitrile], the values for the IC50 in test [1] and in test [4] were 0.55 nM and 6.72 nM, respectively. Besides, the Ki in test [2] was determined as 0.07 nM; in test [3] it was 0.13 nM.

Regarding `COc1nn(C)c2c1-c1cnc(N)c(c1)OC(C1CC1)c1cc(F)ccc1C(=O)N(C)C2` (single isomer, unassigned) [Example 26, 7-amino-10-cyclopropyl-12-fluoro-3-methoxy-1,16-dimethyl-16,17-dihydro-1H-8,4-(metheno)pyrazolo[4,3-h][2,5,11]benzoxadiazacyclotetradecin-15(10H)-one], the IC50 worked out at 50.5 nM in test [1] and 511 nM in test [4]. Moreover, the figures for the inhibitory constant (Ki) in test [2] and in test [3] were 3.3 nM and 15 nM, respectively.

With `CCCn1nnc2c1-c1cnc(N)c(c1)O[C@H](C)c1cc(F)ccc1C(=O)N(C)C2` [Example 41, (10R)-7-amino-12-fluoro-10,16-dimethyl-3-propyl-16,17-dihydro-3H-8,4-(metheno)[1,2,3]triazolo[4,5-h][2,5,11]benzoxadiazacyclotetradecin-15(10H)-one], the values for the IC50 in test [1] and in test [4] were 33.1 nM and 680 nM, respectively. The results for the Ki in test [2] and in test [3] were 1.5 nM and 19 nM, respectively.

In the case of `CC1c2nn(C)c(C#N)c2-c2cnc(N)c(n2)OCc2cc(F)ccc2C(=O)N1C` (single isomer, unassigned) [Example 79, 7-amino-12-fluoro-2,16,17-trimethyl-15-oxo-10,15,16,17-tetrahydro-2H-8,4-(azeno)pyrazolo[4,3-h][2,5,11]benzoxadiazacyclotetradecine-3-carbonitrile], the IC50 in test [1] stood at 42.8 nM; in test [4], 180 nM. Moreover, the inhibition constant (Ki) in test [2] was 1.18 nM; in test [3], 2.9 nM.

On to `CN1Cc2ccc(S(C)(=O)=O)cc2-c2cnc(N)c(c2)OCc2cc(F)ccc2C1=O` [Example 5, 8-amino-3-fluoro-17-methyl-13-(methylsulfonyl)-16,17-dihydro-7,11-(metheno)dibenzo[g,l][1,4,10]oxadiazacyclotetradecin-18(5H)-one], for which the IC50 in test [1] came out at 12.1 nM; in test [4] it was 156 nM. Also, the inhibition constant Ki in test [2] is 0.34 nM; in test [3], 3.4 nM.

Take `C[C@H]1Oc2cc(cnc2N)-c2c(nc3ccccn23)CN(C)C(=O)c2ccc(F)cc21` [Example 50, (5R)-8-amino-3-fluoro-5,19-dimethyl-18,19-dihydro-7,11-(metheno)pyrido-[2′,1′:2,3]imidazo[4,5-h][2,5,11]benzoxadiazacyclotetradecin-20(5H)-one]: the results for the concentration for half-maximal inhibition (IC50) in test [1] and in test [4] were 2.37 nM and 29.7 nM, respectively. For the same compound, the Ki in test [2] amounted to 0.14 nM; in test [3], 1.2 nM.

On to `CN1Cc2ccccc2-c2cnc(N)c(c2)OCc2cc(F)ccc2C1=O` [Example 7, 8-amino-3-fluoro-17-methyl-16,17-dihydro-7,11-(metheno)dibenzo[g,l]-[1,4,10]oxadiazacyclotetradecin-18(5H)-one], for which the results for the concentration for half-maximal inhibition (IC50) in test [1] and in test [4] were 155 nM and 2680 nM, respectively. Further, in test [3], the inhibitory constant (Ki) is 14 nM.

As for `C[C@H]1Oc2cc(cnc2N)-c2c(nnn2C2CC2)CN(C)C(=O)c2ccc(F)cc21` [Example 137, (10R)-7-amino-3-cyclopropyl-12-fluoro-10,16-dimethyl-16,17-dihydro-3H-8,4-(metheno)[1,2,3]triazolo[4,5-h][2,5,11]benzoxadiazacyclotetradecin-15(10H)-one], the inhibitory constant (Ki) was determined as 6.1 nM in test [2] and 72.4 nM in test [3]. For the same compound, in test [4], the IC50 is 2280 nM.

Consider `CCc1noc2c1-c1cnc(N)c(n1)O[C@H](C)c1cc(F)ccc1C(=O)N(C)C2` [Example 47, (10R)-7-amino-3-ethyl-12-fluoro-10,16-dimethyl-16,17-dihydro-8,4-(azeno)[1,2]oxazolo[4,5-h][2,5,11]benzoxadiazacyclotetradecin-15(10H)-one], for which the inhibitory constant (Ki) was determined as 0.29 nM in test [2] and 3.6 nM in test [3]. In addition, the IC50 in test [4] came to 208 nM.

As for `CC1Oc2cc(cnc2N)-c2c(cnn2C)CCCCCOc2ccc(F)cc21` (centres unmarked) [Example 129, 12-fluoro-1,14-dimethyl-1,4,5,6,7,8-hexahydro-14H-16,20-(metheno)-pyrazolo-[4,3-g][1,14,11]benzodioxazacycloheptadecin-17-amine], the inhibition constant Ki was 353 nM in test [2] and above 1500 nM in test [3].

On to `CC1Oc2cc(cnc2N)-c2c(C(C)(C)C)nn(C)c2CN(C)C(=O)c2ncccc21` (centres unmarked) [Example 67, 7-amino-3-tert-butyl-1,10,16-trimethyl-16,17-dihydro-1H-8,4-(metheno)pyrazolo[4,3-g]pyrido[2,3-l][1,4,10]oxadiazacyclotetradecin-15(10H)-one], for which the Ki in test [2] is 411 nM; in test [3] it was above 1500 nM.

As for `Cc1nn(S(=O)(=O)N(C)C)c2c1-c1cnc(N)c(c1)OCc1cc(F)ccc1OCCC2` [Example 44, 7-amino-12-fluoro-N,N,3-trimethyl-17,18-dihydro-10H-8,4-(metheno)-pyrazolo[3,4-e][1,12,9]benzodioxazacyclopentadecine-1(16H)-sulfonamide], the Ki worked out at 12 nM in test [2] and 70 nM in test [3].
